System: male Wistar rats
Test: chronic mild stress model, 1% sucrose consumption
Type: in vivo, rat
Conditions: stressed and control groups, 10 mg/kg once daily

- body mass gain in the 5 weeks of treatment vs vehicle-treated controls: gained less body mass
SMILES: CN(C)CCCN1c2ccccc2CCc2ccccc21 [imipramine]

From PMC3177041 (Journal of Cachexia, Sarcopenia and Muscle, 2011)
